What was measured:
[1] = Ex vivo biodistribution by dissection and gamma counting after intravenous administration; type: in vivo; details: i.v., mice
Experimental: The biodistribution of [^131I]TTR after intravenous administration in wild type mice was first investigated. With that aim, animals (n = 3 per time point) were administered with the radiotracer and sacrificed by exsanguination at pre-defined time points. Major organs were harvested together with blood and urine and the amount of radioactivity was determined by gamma counting. (Fig. 2, red bars).
Animals (n = 3 per compound and time point) were anesthetized with isoflurane 5% in pure oxygen and a solution containing [^131I]TTR, [^131I]IDIF, [^131I]TTR-IDIF complex or TTR-[^131I]IDIF complex (0.9 ± 0.4 MBq/120 μl) was injected through one of the lateral tail veins. Animals were recovered from anaesthesia and at pre-determined time points (t = 5, and 15 min and 1, 6 and 24 h), animals were sacrificed by perfusion using saline solution and kidneys, spleen, liver, small intestine, and brain were quickly removed and rinsed with water. The amount of activity in each organ was measured in an automatic gamma counter (2470 Wizard, PerkinElmer). Urine and blood samples were obtained just before perfusion. Part of the blood was processed to separate the plasma, which was also counted in the gamma counter.
For dissection and gamma counting experiments to assess biodistribution, values obtained for different compounds at each time point and organ were compared using t-student test, comparison of two independent means, using the GraphPad Prism software (version 7.03).

TTR = molecular target: T1, TTR (Homo sapiens, UniProt P02766); test: Displacement of bound [131I]IDIF from TTR-[131I]IDIF complex by non-labeled IDIF; type: binding; details: concentrations over 50 μM of IDIF, TTR complex 0.11 μM, overnight 4 °C
T1 construct: made in house
Experimental: Likewise, the preparation of [^131I]TTR-IDIF was carried out under adequate conditions to ensure that all the [^131I]TTR was stabilized with IDIF. This is extremely important because the separation of [^131I]TTR from [^131I]TTR-IDIF is unfeasible using chromatographic techniques. […] It was observed that a concentration of IDIF = 50 µM displaced > 99% of bound [^131I]IDIF.
First, the TTR/IDIF relative amount to achieve complete formation of the complex was determined. With that aim, six 100 μL aliquots of the [^131I]IDIF-TTR complex prepared as described above were incubated overnight (T = 4 °C) with different amounts of non-radioactive IDIF in 100 μL TNE buffer (final concentrations of IDIF = 0.88, 2.63, 8.76, 17.5, 52.5 and 175 μM, respectively; final concentration of TTR as TTR-[^131I]IDIF complex = 0.11 μM). After incubation, the samples were eluted through illustra^TM NAP-5 columns (GE Healthcare, USA) and radioactivity corresponding to the collected fractions of free [^131I]IDIF and TTR-[^131I]IDIF complex were compared to determine the proportion of [^131I]IDIF free and bound to TTR. For concentrations over 50 μM of IDIF, the displacement was > 97%.

SMILES | percentage of injected dose per gram of blood ([1]; blood, t = 5 min, n = 3) [%ID/g] | maximum value in brain ([1]; brain, 1 h after administration) [%ID/g] | accumulation in kidneys ([1]; kidneys, t = 5 min) [% ID/g] | accumulation in liver ([1]; liver, t = 5 min) [% ID/g] | accumulation in small intestine (peak) ([1]; small intestine, peak at t = 1–6 h) | displacement of [131I]IDIF (TTR) [%]
O=C(O)c1cc(-c2ccc(F)cc2F)cc([131I])c1O [[^131I]IDIF, [^131I]iododiflunisal] | 23.3 ± 7.6 | 0.05 | 14.9 ± 3.0 | 20.0 ± 5.5 | ca. 15 % ID/g | –
O=C(O)c1cc(-c2ccc(F)cc2F)cc(I)c1O [IDIF, iododiflunisal] | – | – | – | – | – | > 97

From article PMC6754432, “Radiochemical examination of transthyretin (TTR) brain penetration assisted by iododiflunisal, a TTR tetramer stabilizer and a new candidate drug for AD” (Scientific Reports, 2019)
